Data published in ChEMBL document CHEMBL4699557, “Structure activity relationship of novel antiviral nucleosides against Enterovirus A71” (Bioorg Med Chem Lett, 2020).

Tests used:
[1] = test system: Vero 76; test: Cytotoxicity against monkey Vero 76 cells by microscopic analysis; assay type: cell-based; conditions: chlorocebus sabaeus, vero 76
[2] = test system: Enterovirus A71; test: microbe, parasite or virus in culture; assay type: functional, organism-based, Tainin/4643/98, Vero 76; conditions: Enterovirus A, Tainin/4643/98, Vero 76, 72 h
[3] = test system: Vero 76; test: Cytotoxicity against monkey Vero 76 cells by neutral red uptake assay; assay type: cell-based; conditions: chlorocebus sabaeus, vero 76
[4] = test system: Enterovirus A71; test: microbe, parasite or virus in culture; assay type: functional, organism-based; conditions: Enterovirus A, Tainin/4643/98, Vero 76, 72 h
[5] = in vitro; conditions: monkey, Vero 76 cells
[6] = in vitro; conditions: monkey, Vero 76 cells; remark: listed apart in the source

With `CC(C)[C@@H](Nc1nc(Cl)nc2c1ncn2[C@H]1[C@H](O)[C@H](O)[C@]2(CN)C[C@H]12)C1CC1` the CC50 [1] was 32 µM, the EC50 [2] was > 32 µM and the CC50 [3] was 32 µM. The EC50 [4] was > 32 µM.
For `O[C@@H]1[C@H](O)[C@@H]2C[C@@H]2[C@H]1n1cnc2c(N[C@H](CC3CC3)C3CC3)nc(Cl)nc21`, the selectivity ratio [5] was 1.2, the EC50 [2] was 21 µM and the selectivity ratio [6] was > 2.4. The CC50 [3] was 9.9 µM and the EC50 [4] was 8.1 µM.
With `O[C@@H]1[C@H](O)[C@@H]2C[C@@H]2[C@H]1n1cnc2c(NC(C3CC3)C3CC3)ncnc21` the CC50 [1] was > 50 µM, the EC50 [2] was > 50 µM and the CC50 [3] was > 50 µM. The EC50 [4] was > 50 µM.
For `O[C@@H]1[C@H](O)[C@@H]2C[C@@H]2[C@H]1n1cnc2c(NC(C3CC3)C3CC3)nc(I)nc21`, the CC50 [1] was > 50 µM, the EC50 [2] was > 50 µM and the CC50 [3] was 50 µM. The EC50 [4] was > 50 µM.
In the case of `Nc1nc(Cl)nc2c1ncn2[C@H]1[C@H](O)[C@H](O)[C@]2(CO)C[C@H]12`, the CC50 [1] is reported as > 50 µM, the EC50 [2] is reported as > 50 µM and the CC50 [3] is reported as 36 µM. For the same compound, the EC50 [4] was > 36 µM.
With `O[C@@H]1[C@H](O)[C@@H]2C[C@@H]2[C@H]1n1cnc2c(NC(C3CCC3)C3CCC3)nc(Cl)nc21` the CC50 [1] was 16 µM, the CC50 [3] was 17 µM and the EC50 [4] was > 17 µM.
With `CC(C)(O)[C@@H](Nc1nc(Cl)nc2c1ncn2[C@H]1[C@H](O)[C@H](O)[C@]2(CO)C[C@H]12)C1CC1` the CC50 [1] was > 100 µM, the EC50 [2] was > 100 µM and the CC50 [3] was > 100 µM. The EC50 [4] was > 100 µM.
With `CCOC(=O)c1ccc(OCCC2CCN(c3ccc(C)nn3)CC2)cc1` [PIRODAVIR] the selectivity ratio [5] was 30, the CC50 [1] was > 27 µM and the EC50 [2] was 0.86 µM. For the same compound, the selectivity ratio [6] was > 31, the CC50 [3] was 17 µM and the EC50 [4] was 0.57 µM.
For `CCOC(=O)[C@@]12C[C@@H]1[C@@H](n1cnc3c(NC(C4CC4)C4CC4)nc(Cl)nc31)[C@H](O)[C@@H]2O`, the CC50 [1] was > 50 µM, the EC50 [2] was > 50 µM and the CC50 [3] was 1.5 µM. The EC50 [4] was > 1.5 µM.
With `CC(C)C(Nc1nc(Cl)nc2c1ncn2[C@H]1[C@H](O)[C@H](O)[C@]2(CO)C[C@H]12)C(C)C` the CC50 [1] was > 100 µM, the EC50 [2] was 32 µM and the CC50 [3] was > 100 µM. For the same compound, the EC50 [4] was 32 µM.
With `NC(=O)c1ncn([C@H]2[C@H](O)[C@H](O)[C@]3(CO)C[C@H]23)n1` the CC50 [1] was > 50 µM, the EC50 [2] was > 50 µM and the CC50 [3] was > 50 µM. For the same compound, the EC50 [4] was > 50 µM.
With `O[C@@H]1[C@H](O)[C@@H]2C[C@@H]2[C@H]1n1cnc2c(NCc3ccccc3F)nc(Cl)nc21` the CC50 [1] was > 50 µM, the EC50 [2] was > 50 µM and the CC50 [3] was 23 µM. For the same compound, the EC50 [4] was > 23 µM.
`CC(C)[C@@H](Nc1nc(Cl)nc2c1ncn2[C@H]1[C@H](O)[C@H](O)[C@]2(CCl)C[C@H]12)C1CC1` gave a selectivity ratio [5] of 6.9, a CC50 [1] of 32 µM and an EC50 [2] of 4.3 µM. It also gave a selectivity ratio [6] of 7.4, a CC50 [3] of 27 µM and an EC50 [4] of 3.9 µM.
With `NCCCNC(=O)[C@@]12C[C@@H]1[C@@H](n1cnc3c(NC(C4CC4)C4CC4)nc(Cl)nc31)[C@H](O)[C@@H]2O` the CC50 [1] was > 50 µM, the EC50 [2] was > 50 µM and the CC50 [3] was 50 µM. The EC50 [4] was > 50 µM.
In the case of `CC[C@@H](Nc1nc(SC)nc2c1ccn2[C@H]1[C@H](O)[C@H](O)[C@]2(CO)C[C@H]12)C1CC1`, the selectivity ratio [5] is reported as > 22, the CC50 [1] is reported as > 50 µM and the selectivity ratio [6] is reported as > 3.1. The CC50 [3] was > 50 µM and the EC50 [4] was 2.3 µM.
For `CC(C)[C@H](Nc1nc(Cl)nc2c1ncn2[C@H]1[C@H](O)[C@H](O)[C@]2(CO)C[C@H]12)C1CC1`, the CC50 [1] was > 50 µM, the EC50 [2] was 12 µM and the CC50 [3] was > 50 µM. It also gave an EC50 [4] of 2.3 µM.
In the case of `OC[C@@]12C[C@@H]1[C@@H](n1cnc3c(NC(C4CCC4)C4CCC4)nc(Cl)nc31)[C@H](O)[C@@H]2O`, the CC50 [1] is reported as 50 µM, the EC50 [2] is reported as 16 µM and the selectivity ratio [6] is reported as 3.1. The CC50 [3] was 28 µM and the EC50 [4] was > 28 µM.
With `OC[C@@]12C[C@@H]1[C@@H](n1cnc3c(NCc4ccccc4)nc(Cl)nc31)[C@H](O)[C@@H]2O` the CC50 [1] was > 100 µM, the EC50 [2] was > 100 µM and the CC50 [3] was > 100 µM. The EC50 [4] was > 100 µM.
For `CC(C)[C@@H](Nc1nc(Cl)nc2c1ncn2[C@H]1[C@H](O)[C@H](O)[C@@H]2C[C@@H]21)C1CC1`, the selectivity ratio [5] was > 4.2, the CC50 [1] was > 50 µM and the EC50 [2] was 16 µM. For the same compound, the selectivity ratio [6] was > 3.1, the CC50 [3] was > 50 µM and the EC50 [4] was 12 µM.
In the case of `O[C@@H]1[C@H](O)[C@@H]2C[C@@H]2[C@H]1n1ccc2c(NC(C3CC3)C3CC3)nc(I)nc21`, the selectivity ratio [5] is reported as 1.4, the CC50 [1] is reported as 100 µM and the EC50 [2] is reported as > 100 µM. For the same compound, the CC50 [3] was 44 µM and the EC50 [4] was 32 µM.
For `O[C@@H]1[C@H](O)[C@@H]2C[C@@H]2[C@H]1n1cnc2c(N[C@@H](CC3CC3)C3CC3)nc(Cl)nc21`, the CC50 [1] was > 50 µM, the EC50 [2] was 18 µM and the selectivity ratio [6] was > 2.8. For the same compound, the CC50 [3] was 7.6 µM and the EC50 [4] was > 7.6 µM.
With `CSc1nc(N[C@@H](C2CC2)C(C)(C)O)c2ccn([C@H]3[C@H](O)[C@H](O)[C@]4(CO)C[C@H]34)c2n1` the CC50 [1] was > 100 µM, the EC50 [2] was > 100 µM and the CC50 [3] was > 100 µM. The EC50 [4] was > 100 µM.
For `OC[C@H]1O[C@@H](n2cnc3c(NC(C4CC4)C4CC4)ncnc32)[C@H](O)[C@@H]1O`, the CC50 [1] was > 50 µM, the EC50 [2] was > 50 µM and the CC50 [3] was > 50 µM. The EC50 [4] was > 50 µM.
`CC(C)[C@@H](Nc1nc(Cl)nc2c1ncn2[C@H]1[C@H](O)[C@H](O)[C@]2(CN=[N+]=[N-])C[C@H]12)C1CC1` gave a selectivity ratio [5] of 6.7, a CC50 [1] of 32 µM and an EC50 [2] of 5.3 µM. It also gave a selectivity ratio [6] of 6, a CC50 [3] of 32 µM and an EC50 [4] of 4.8 µM.
With `COC(=O)c1cnn(-c2nc(NC(C3CC3)C3CC3)c3ncn([C@H]4[C@H](O)[C@H](O)[C@@H]5C[C@@H]54)c3n2)c1` the CC50 [1] was > 50 µM, the EC50 [2] was > 50 µM and the CC50 [3] was 50 µM. For the same compound, the EC50 [4] was > 50 µM.
With `OC[C@H]1O[C@@H](n2cnc3c(NC(C4CCC4)C4CCC4)nc(Cl)nc32)[C@H](O)[C@@H]1O` the CC50 [1] was 32 µM, the EC50 [2] was > 32 µM and the CC50 [3] was 27 µM. For the same compound, the EC50 [4] was > 27 µM.
With `CSc1nc(N[C@H](C(C)C)C2CC2)c2ncn([C@H]3[C@H](O)[C@H](O)[C@]4(CO)C[C@H]34)c2n1` the selectivity ratio [5] was > 1.5, the CC50 [1] was > 100 µM and the CC50 [3] was > 100 µM. It also gave an EC50 [4] of 66 µM.
For `OC[C@@]12C[C@@H]1[C@@H](n1cnc3c(N[C@@H](C4CCC4)C4CC4)nc(Cl)nc31)[C@H](O)[C@@H]2O`, the selectivity ratio [5] was 1.6, the EC50 [2] was 16 µM and the selectivity ratio [6] was > 3.1. For the same compound, the CC50 [3] was 13 µM and the EC50 [4] was 8 µM.
For `OC[C@@]12C[C@@H]1[C@@H](n1cnc3c(N[C@H](C4CCC4)C4CC4)nc(Cl)nc31)[C@H](O)[C@@H]2O`, the selectivity ratio [5] was 1.5, the CC50 [1] was > 50 µM and the EC50 [2] was 16 µM. The selectivity ratio [6] was > 3.1, the CC50 [3] was 14 µM and the EC50 [4] was 9.3 µM.
With `O=C(O)c1cnn(-c2nc(NC(C3CC3)C3CC3)c3ncn([C@H]4[C@H](O)[C@H](O)[C@@H]5C[C@@H]54)c3n2)c1` the CC50 [1] was > 50 µM, the EC50 [2] was > 50 µM and the CC50 [3] was 50 µM. The EC50 [4] was > 50 µM.
For `CC(C)(C)[C@H](Nc1nc(Cl)nc2c1ncn2[C@H]1[C@H](O)[C@H](O)[C@]2(CO)C[C@H]12)C1CC1`, the CC50 [1] was > 100 µM, the EC50 [2] was 32 µM and the CC50 [3] was > 100 µM. It also gave an EC50 [4] of 31 µM.
For `CSC[C@@]12C[C@@H]1[C@@H](n1cnc3c(N[C@H](C(C)C)C4CC4)nc(Cl)nc31)[C@H](O)[C@@H]2O`, the selectivity ratio [5] was 3.8, the CC50 [1] was 32 µM and the EC50 [2] was > 32 µM. For the same compound, the CC50 [3] was 32 µM and the EC50 [4] was 8.4 µM.
In the case of `O[C@@H]1[C@H](O)[C@@H]2C[C@@H]2[C@H]1n1cnc2c(NCC(C3CC3)C3CC3)nc(Cl)nc21`, the CC50 [1] is reported as > 50 µM, the EC50 [2] is reported as > 50 µM and the CC50 [3] is reported as 10 µM. The EC50 [4] was > 10 µM.
For `O=C(O)[C@@]12C[C@@H]1[C@@H](n1cnc3c(NC(C4CC4)C4CC4)nc(Cl)nc31)[C@H](O)[C@@H]2O`, the CC50 [1] was > 50 µM, the EC50 [2] was > 50 µM and the CC50 [3] was 50 µM. For the same compound, the EC50 [4] was > 50 µM.
With `CC(C)(O)[C@@H](Nc1nc(Cl)nc2c1ccn2[C@H]1[C@H](O)[C@H](O)[C@]2(CO)C[C@H]12)C1CC1` the CC50 [1] was > 100 µM, the EC50 [2] was > 100 µM and the CC50 [3] was 63 µM. For the same compound, the EC50 [4] was > 63 µM.
In the case of `OC[C@H]1O[C@@H](n2cnc3c(NC(C4CCC4)C4CCC4)ncnc32)[C@H](O)[C@@H]1O`, the CC50 [1] is reported as > 100 µM, the EC50 [2] is reported as > 100 µM and the CC50 [3] is reported as > 100 µM. For the same compound, the EC50 [4] was > 100 µM.
With `NNc1nc(NC(C2CC2)C2CC2)c2ncn([C@H]3[C@H](O)[C@H](O)[C@@H]4C[C@@H]43)c2n1` the CC50 [1] was > 50 µM, the EC50 [2] was > 50 µM and the CC50 [3] was 50 µM. For the same compound, the EC50 [4] was > 50 µM.
For `CC[C@H](Nc1nc(Cl)nc2c1ncn2[C@H]1[C@H](O)[C@H](O)[C@]2(CO)C[C@H]12)C1CC1`, the selectivity ratio [5] was > 9.4, the CC50 [1] was > 50 µM and the selectivity ratio [6] was > 3.1. For the same compound, the CC50 [3] was > 50 µM and the EC50 [4] was 5.3 µM.
With `NCCNC(=O)[C@@]12C[C@@H]1[C@@H](n1cnc3c(NC(C4CC4)C4CC4)nc(Cl)nc31)[C@H](O)[C@@H]2O` the CC50 [1] was > 50 µM, the EC50 [2] was > 50 µM and the CC50 [3] was 50 µM. For the same compound, the EC50 [4] was > 50 µM.
